Like-named read-outs stand apart in the source and are kept apart here.
Tests used:
[1] = target: T1, CCK receptor (brain) (Cavia porcellus, UniProt H0VZC5); assay: CCK Receptor Binding (Brain), inhibition of specific 125I-CCK-8 binding; parameters: species or system guinea pig (male Hartley)
T1 construct: the cortex was removed and homogenized in 25 mL ice-cold 0.32M sucrose; from tissue; host or cells: cortex of male Hartley guinea pigs, P2 membranes
T1 sequence (H0VZC5 1-426): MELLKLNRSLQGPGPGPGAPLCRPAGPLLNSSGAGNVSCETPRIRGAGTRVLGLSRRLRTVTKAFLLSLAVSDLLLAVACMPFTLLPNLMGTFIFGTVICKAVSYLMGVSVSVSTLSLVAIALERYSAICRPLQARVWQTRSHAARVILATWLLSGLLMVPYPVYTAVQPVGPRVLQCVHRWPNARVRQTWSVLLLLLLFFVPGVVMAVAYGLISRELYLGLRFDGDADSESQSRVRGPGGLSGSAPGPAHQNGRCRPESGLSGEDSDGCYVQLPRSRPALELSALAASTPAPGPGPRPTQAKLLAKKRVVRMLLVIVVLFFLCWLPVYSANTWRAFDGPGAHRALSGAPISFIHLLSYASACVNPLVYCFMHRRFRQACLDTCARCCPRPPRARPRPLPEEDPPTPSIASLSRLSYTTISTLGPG
Protocol: 2. CCK Receptor Binding (Brain)
CCK-8 sulphated was radiolabelled and the binding was performed according to the description for the pancreas method with minor modifications.
Male Hartley guinea pigs (300-500 g) were sacrificed by decapitation and the cortex was removed and homogenized in 25 mL ice-cold 0.32M sucrose. The homogenates were centrifuged at 1000 g for 10 minutes and the resulting supernatant was recentrifuged at 20,000 g for 20 minutes. The P2 pellet was resuspended in binding assay buffer (20mM HEPES, 5 mM MgCl2, 0.25 mg/ml bacitracin, 1 mM EGTA pH 6.5 at 25° C.), using a Teflon (trademark) homogenizer (5 strokes at 500 rpm) to give a final concentration of 10 mg original wet weight/1.2 ml buffer. […] All assays were run in duplicate. The reaction mixtures were incubated at 25° C. for 2 hours and then the reaction was terminated by rapid filtration (Brandell 24 well cell harvester) on Whatman GF/C filters with 3×5 ml washes of cold 100 mM NaCl. The radioactivity on the filters was counted with a LKB gamma counter.

[2] = target: T2, CCK receptor (pancreas) (Rattus norvegicus, UniProt P30551); assay: CCK Receptor Binding (Pancreas), inhibition of specific 125I-CCK-8 binding; parameters: species or system rat (male Sprague-Dawley)
T2 construct: The whole pancreas was dissected free of fat tissue and was homogenized; from tissue; host or cells: whole pancreas of male Sprague-Dawley rats, homogenate membranes
T2 sequence (P30551 1-444): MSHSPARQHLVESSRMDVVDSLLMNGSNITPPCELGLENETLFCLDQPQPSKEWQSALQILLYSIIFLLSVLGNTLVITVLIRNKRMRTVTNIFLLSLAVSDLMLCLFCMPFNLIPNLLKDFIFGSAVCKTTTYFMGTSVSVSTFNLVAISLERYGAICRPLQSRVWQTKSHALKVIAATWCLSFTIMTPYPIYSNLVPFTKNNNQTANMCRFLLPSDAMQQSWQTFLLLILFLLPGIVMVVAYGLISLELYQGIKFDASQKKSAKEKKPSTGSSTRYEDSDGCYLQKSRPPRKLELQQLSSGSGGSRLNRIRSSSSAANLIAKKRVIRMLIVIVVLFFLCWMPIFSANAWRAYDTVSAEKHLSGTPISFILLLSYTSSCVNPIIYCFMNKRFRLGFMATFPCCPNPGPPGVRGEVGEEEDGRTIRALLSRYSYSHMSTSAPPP
Protocol: 1. CCK Receptor Binding (Pancreas)
CCK-8 sulphated was radiolabelled with ^125 I-Bolton Hunter reagent (2000 Ci/mmole). Receptor binding was performed according to Chang and Lotti (Proc. Natl. Acad. Sci. 83, 4923-4926, 1986) with minor modifications.
Male Sprague-Dawley rats (150-200 g) were sacrificed by decapitation. The whole pancreas was dissected free of fat tissue and was homogenized in 25 volumes of ice-cold 10 mM N-2-hydroxyethyl-piperazine-N'-2-ethane sulphonic acid (HEPES) buffer with 0.1% soya bean trypsin inhibitor (pH 7.4 at 25° C.) with a Kinematica Polytron. The homogenates were centrifuged at 47,800 g for 10 min. Pellets were resuspended in 10 volumes of binding assay buffer (20 mM (HEPES)), 1 mM ethylene glycol-bis-(β-aminoethylether-N,N'-tetraacetic acid) (EGTA), 5 mM MgCl2, 150 mM NaCl, bacitracin 0.25 mg/ml, soya bean trypsin inhibitor 0.1 mg/ml, and bovine serum albumin 2 mg/ml pH 6.5 at 25° C.) using a Teflon (trademark) homogenizer, 15 strokes at 500 rpm. The homogenate was further diluted in binding assay buffer to give a final concentration of 0.5 mg original wet weight/1 ml buffer. […] All assays were run in duplicate. The reaction mixtures were incubated at 25° C. for 2 hours and the reaction terminated by rapid filtration (Brandell 24 well cell harvester) over Whatman GF/C filters, washing 3×4 mls with ice-cold 100 Mm NaCl. The radioactivity on the filters was counted with a LKB gamma counter.

[3] = guinea pig cortex membranes, 50 pM 125I-CCK-8, 25° C., 2 hours, pH 6.5, read-out: IC50 125I-CCK Brain
[4] = rat pancreas membranes, 50 pM 125I-CCK-8, 25° C., 2 hours, pH 6.5, read-out: IC50 125I-CCK Pancreas

Row | SMILES | IC50 [1, 3] | IC50 [2, 4] | IC50 [2] | IC50 [1]
1 | Cc1ccc(NC(=O)NC2N=C(c3ccccc3)c3ccccc3N(C(C)(C)C)C2=O)cc1Nc1nnn[nH]1 (racemic) [Example 16, N-[3(R,S)-1-tert-Butyl-2,3-dihydro-2-oxo-5-phenyl-1H-1,4-benzodiazepin-3-yl]-N'-[4-methyl-3-{(tetrazol-5-yl)amino}phenyl]urea] | 497 nM |  | 3610 nM | 
2 | CCCN1C(=O)C(NC(=O)Nc2cccc(N(C)c3nnn[nH]3)c2)N=C(N2CCN(C)CC2)c2ccccc21 (single isomer, unassigned; (-)) [Example 17, (-)-N-[2,3-Dihydro-5-(4-methylpiperazin-1-yl)-2-oxo-1-propyl-1H-1,4-benzodiazepin-3-yl]-N'-[3-{N-methyl-N-(tetrazol-5-yl)amino}phenyl]urea] | 0.93 nM | > 3000 nM |  | 
3 | CN1C(=O)[C@H](NC(=O)Nc2ccc3c(c2)N(c2nn[nH]n2)CC3)N=C(c2ccccc2)c2ccccc21 [Example 14, (+)-N-[3(R)-2,3-Dihydro-1-methyl-2-oxo-5-phenyl-1H-1,4-benzodiazepin-3-yl]-N'-[1-(tetrazol-5yl)indolin-6-yl]urea] |  |  |  | 0.11 nM
4 | Cc1ccc(NC(=O)N[C@@H]2N=C(C3CCCCC3)c3ccccc3N(C)C2=O)cc1N(C)c1nn[nH]n1 [Example 11, (+)-N-[3(R)-5-Cyclohexyl-2,3-dihydro-1-methyl-2-oxo-1H-1,4-benzodiazepin-3-yl]-N'-[4-methyl-3-{N-methyl-N-(tetrazol-5-yl)amino}phenyl]urea] |  | 600 nM |  | 
5 | Cc1ccc(NC(=O)N[C@@H]2N=C(C3CCCCC3)c3ccccc3N(C)C2=O)cc1Nc1nnn[nH]1 [Example 10, (+)-N-[3(R)-5-Cyclohexyl-2,3-dihydro-1-methyl-2-oxo-1H-1,4-benzodiazepin-3-yl]-N'-[4-methyl-3-{(tetrazol-5-yl)amino}phenyl]urea] | 0.042 nM | 802 nM |  | 
6 | CN1C(=O)[C@H](NC(=O)Nc2cccc(Nc3nn[nH]n3)c2)N=C(c2ccccc2)c2ccccc21 [Example 8, (+)-N-[3(R)-2,3-Dihydro-1-methyl-2-oxo-5-phenyl-1H-1,4-benzodiazepin-3-yl]-N'-[3-{(tetrazol-5-yl)amino}phenyl]urea] |  |  | > 3000 nM | 5.7 nM
7 | CN1C(=O)[C@H](NC(=O)Nc2cccc(CNc3nn[nH]n3)c2)N=C(c2ccccc2)c2ccccc21 [Example 9, (+)-N-[3(R)-2,3-Dihydro-1-methyl-2-oxo-5-phenyl-1H-1,4-benzodiazepin-3-yl]-N'-[3-{(tetrazol-5-yl)aminomethyl}phenyl]urea] |  |  | > 3000 nM | 7.4 nM
8 | CN1C(=O)[C@H](NC(=O)Nc2cccc(N(C)c3nn[nH]n3)c2)N=C(c2ccccc2)c2ccccc21 [Example 7, (+)-N-[3(R)-2,3-Dihydro-1-methyl-2-oxo-5-phenyl-1H-1,4-benzodiazepin-3-yl]-N'-[3-{N-methyl-N-(tetrazol-5-yl)amino}phenyl]urea] |  |  | > 3000 nM | 0.575 nM
9 | Cc1ccc(NC(=O)N[C@@H]2N=C(c3ccccc3)c3ccccc3N(C)C2=O)cc1Nc1nn[nH]n1 [Example 12, (+)-N-[3(R)-2,3-Dihydro-1-methyl-2-oxo-5-phenyl-1H-1,4-benzodiazepin-3-yl]-N'-[4-methyl-3-{(tetrazol-5-yl)amino}phenyl]urea] |  |  | > 3000 nM | 1.09 nM
10 | CN1C(=O)C(C)(NC(=O)Nc2cccc(CNc3nnn[nH]3)c2)N=C(c2ccccc2)c2ccccc21 (racemic) [Example 15, N-[3-(R,S)-2,3-Dihydro-1,3-dimethyl-2-oxo-5-phenyl-1H-1,4-benzodiazepin-3-yl]-N'-[3-{(tetrazol-5-yl)aminomethyl}phenyl]urea] | 1300 nM |  | 42.8 nM | 

Second part, led by results:

Row | IC50 [1, 3] | IC50 [2, 4] | SMILES | IC50 [2] | IC50 [1]
11 | 0.11 nM | 10 nM | CN1C(=O)C(NC(=O)Nc2cccc(N(C)c3nnn[nH]3)c2)N=C(C2CCCCC2)c2ccccc21 (racemic) [Example 3, N-[3(R,S)-5-Cyclohexyl-2,3-dihydro-1-methyl-2-oxo-1H-1,4-benzodiazepin-3-yl]-N'-[3-{N-methyl-N-(tetrazol-5-yl)amino}phenyl]urea] |  | 
12 | 0.284 nM | 153 nM | CN1C(=O)[C@H](NC(=O)Nc2cccc(CNc3nnn[nH]3)c2)N=C(C2CCCCC2)c2ccccc21 [Example 6, (+)-N-[3(R)-5-Cyclohexyl-2,3-dihydro-1-methyl-2-oxo-1H-1,4-benzodiazepin-3-yl]-N'-[3-{(tetrazol-5-yl)aminomethyl}phenyl]urea] |  | 
13 | 14 nM | 109 nM | CCCN1C(=O)C(NC(=O)Nc2cccc(CNc3ncc[nH]3)c2)N=C(C2CCCCC2)c2ccccc21 (racemic) [Example 18, N-[3(R,S)-5-Cyclohexyl-2,3-dihydro-2-oxo-1-propyl-1H-1,4-benzodiazepin-3-yl]N'-[3-[(1H-imidazol-2-ylamino)methyl]phenyl]urea] |  | 
14 | 0.31 nM | 6.5 nM | CN1C(=O)C(NC(=O)Nc2cccc(Nc3nnn[nH]3)c2)N=C(C2CCCCC2)c2ccccc21 (racemic) [Example 2, N-[3(R,S)-5-Cyclohexyl-2,3-dihydro-1-methyl-2-oxo-1H-1,4-benzodiazepin-3-yl]-N'-[3-{(tetrazol-5-yl)amino}phenyl]urea] |  | 
15 | 0.82 nM | 9.5 nM | CN1C(=O)C(NC(=O)Nc2cccc(CNc3nnn[nH]3)c2)N=C(C2CCCCC2)c2ccccc21 (racemic) [Example 1, N-[3(R,S)-5-Cyclohexyl-2,3-dihydro-1-methyl-2-oxo-1H-1,4-benzodiazepin-3-yl]-N'-[3-{(tetrazol-5-yl)aminomethyl}phenyl]urea] |  | 
16 | 33.9 nM | 84.5 nM | CN1C(=O)C(NC(=O)Nc2cccc(CNc3ncc[nH]3)c2)N=C(C2CCCCCC2)c2ccccc21 (racemic) [Example 20, N-[3(R,S)-5-Cycloheptyl-2,3-dihydro-1-methyl-2-oxo-1H -1,4-benzodiazepin-3-yl]N'-[3-[(1H-imidazol-2-ylamino)methyl]phenyl]urea] |  | 
17 | 82.9 nM | 1.33 nM | CCCN1C(=O)C(NC(=O)Nc2cccc(Nc3ncc[nH]3)c2)N=C(C2CCCCC2)c2ccccc21 (racemic) [Example 19, N-[3(R,S)-5-Cyclohexyl-2,3-dihydro-2-oxo-1-propyl-1H-1,4-benzodiazepin-3-yl]N'-[3-[(1H-imidazol-2-yl)amino]phenyl]urea] |  | 
18 | 0.7 nM | 200 nM | CN1C(=O)[C@H](NC(=O)Nc2cccc(Nc3nnn[nH]3)c2)N=C(C2CCCCC2)c2ccccc21 [Example 5, (+)-N-[3(R)-5-Cyclohexyl-2,3-dihydro-1-methyl-2-oxo-1H-1,4-benzodiazepin-3-yl]-N'-[3-{(tetrazol-5-yl)amino}phenyl]urea] |  | 

Source: patent US5681833A, “Benzodiazepine derivatives” (Merck, Sharp & Dohme Ltd., priority 1992, dated 1997)
